Data taken from publication PMC7037612, “Ketone Bodies Promote Amyloid-β1–40 Clearance in a Human in Vitro Blood–Brain Barrier Model” (International Journal of Molecular Sciences, 2020).
Blank lines part the entries; values can stand above or below the molecule they belong to.

How the values were obtained:
BLEC monolayer = BLEC monolayer integrity: endothelial permeability to Lucifer Yellow (PeLY); format: cell-based, human
Procedure: No significant pH variation was observed after KB treatment compared to the control. The integrity of the BLEC monolayer after 48 h of treatment with KBs was evaluated using the method described by Dehouck et al. (1992). Each coculture condition was performed in triplicate. The fluorescent integrity marker LY was used at a final concentration of 50 μM in RH buffer to obtain the endothelial permeability coefficient (Pe) from the apical-to-basolateral compartment. The fluorescence of LY in each compartment was measured using the excitation/emission wavelength (432/538 nm) using a microplate reader (Synergy H1). In this calculation method, both the filter without cell permeability (PSf = insert filter + matrigel coating) and filter plus cell permeability (PSt = insert filter + matrigel coating + ECs) were taken into account, according to the formula: 1/PSe = 1/[…] PS is the permeability x surface area product (in microliters per minute) obtained by dividing the volume cleared from the donor to the receiver compartment (in μL) for 1 h. […] balance (%) was calculated from the amount of compound recovered in the donor and receiver compartment at the end of the experiment divided by the total amount added in the donor compartment at time zero. To be taken into account for Pe determination, the mass balance should be between 80% and 120%.

[1] = tested on: [3H]inulin transport across BLECs; assay: [3H]inulin transport across BLECs (non-specific transport marker); format: cell-based, human; settings: 400 nM [3H]inulin, 30 min, 37 °C; for effect on basolateral-to-apical transport of [3H]inulin after ratio KB treatment: 48 h ratio treatment, 200 nM RAP basolateral or 0.5 µM elacridar apical
Procedure: Forty-eight hours after KB treatments, the apical-to-basolateral and the basolateral-to-apical transport of Aβ1-40 across BLECs was investigated as previously described (Briefly, for apical-to-basolateral studies, filters were transferred to new 12-well plates containing 1.5 mL of RH-HSA 0.1% (the receiver solution) per well. In the insert corresponding to the apical compartment, 0.5 mL of RH-HSA 0.1% supplemented with 10 nM Aβ1-40Cy5 peptide was added (the donor solution). For basolateral-to-apical studies, filters were transferred to 12-well plates containing 1.5 mL of RH-HSA 0.1% supplemented with 10 nM fluorescent Aβ1-40Cy5 (the donor solution). In the apical compartment, 0.5 mL of RH-HSA 0.1% (the receiver solution) was added. In parallel, the apical-to-basolateral and the basolateral-to-apical transport of 400 nM [^3H]inulin was performed in the same way as the Aβ1-40Cy5 peptide transport, thus representing a paracellular marker. The BBB integrity was checked by measuring the PeLY as described in Section 4.6. […] At the end of the incubation period, aliquots of the donor and receiver solutions were collected, and the fluorescence compounds (Aβ1-40Cy5 and LY) were measured with a spectrofluorimeter (Synergy H1). The radioactivity of [^3H]inulin was measured using a scintillation counter (Hidex 300 SL, Hidex, Turku, Finland). The permeability (apparent permeability coefficient, cm.sec^−1) of Aβ1-40-Cy5 or [^3H]-inulin was calculated according to the following equation: (1) Papp = (k.V(R))/(A.60) as previously described. k was the transport rate (min^−1) defined as the slope obtained by linear regression of the cumulative fraction absorbed (FAcum) as a function of time (min), V(R) was the volume in the receiver chamber (mL), and A was the area of the filter (cm^2). Determination of the cumulative fraction absorbed (amount permeated), FAcum versus time, FAcum was calculated from: (2) FAcum = ∑ (C(Ri))/(C(Di)), where C(Ri) was the receiver concentration at the end of the interval i and C(Di) was the donor concentration at the beginning of interval i. […]

MCT1 = assay: Western blot of MCT1 protein level in BLECs; format: cell-based, human; settings: 48 h, 20 mM AcAc, 20 mM βHB or ratio (20 mM AcAc/20 mM βHB), Western blot normalized to β-actin, at least three independent experiments
[2] = tested on: Aβ1–40Cy5 peptide transport across BLECs; assay: Aβ1–40Cy5 peptide transport across BLECs; format: cell-based, human; settings: 48 h ratio treatment; 200 nM RAP in basolateral compartment (LRP1 inhibitor) or 0.5 µM elacridar in apical compartment (P-gp inhibitor); 10 nM Aβ1–40Cy5, 30 min, 37 °C
Procedure: Forty-eight hours after KB treatments, the apical-to-basolateral and the basolateral-to-apical transport of Aβ1-40 across BLECs was investigated as previously described (Briefly, for apical-to-basolateral studies, filters were transferred to new 12-well plates containing 1.5 mL of RH-HSA 0.1% (the receiver solution) per well. In the insert corresponding to the apical compartment, 0.5 mL of RH-HSA 0.1% supplemented with 10 nM Aβ1-40Cy5 peptide was added (the donor solution). For basolateral-to-apical studies, filters were transferred to 12-well plates containing 1.5 mL of RH-HSA 0.1% supplemented with 10 nM fluorescent Aβ1-40Cy5 (the donor solution). […] At the end of the incubation period, aliquots of the donor and receiver solutions were collected, and the fluorescence compounds (Aβ1-40Cy5 and LY) were measured with a spectrofluorimeter (Synergy H1). The radioactivity of [^3H]inulin was measured using a scintillation counter (Hidex 300 SL, Hidex, Turku, Finland). […] Determination of the cumulative fraction absorbed (amount permeated), FAcum versus time, FAcum was calculated from: (2) FAcum = ∑ (C(Ri))/(C(Di)), where C(Ri) was the receiver concentration at the end of the interval i and C(Di) was the donor concentration at the beginning of interval i. […] The apical-to-basolateral and the basolateral-to-apical Papp were determined by Equation (1) for each molecule. […]

BLECs = assay: Immunofluorescence of tight junction proteins ZO-1 and claudin-5; format: cell-based, human; settings: 48 h treatment
Procedure: After 48 h of treatments with or without KBs, BLECs were fixed and permeabilized as described in Table 1. Then, a 30-min blocking with PBS-CMF (0.2 g·L^−1 KH2PO4 , 8.0 g·L^−1 NaCl, 2.87 g·L^−1 Na2HPO4-12H2O, and 0.2 g·L^−1 KCl) with 10% (v/v) normal goat serum (NGS) was performed. Then, cells were incubated for 60 min with the primary antibody in PBS-CMF supplemented with 2% NGS at room temperature (RT), against the target protein as described in Table 1.
After three washes in PBS-CMF supplemented with 2% NGS, the cells were incubated with secondary polyclonal antibody (goat anti-rabbit Alexa 568, A11036, Molecular Probes, Eugene, OR, USA) diluted 1:500 in PBS-CMF supplemented with 2% NGS in the dark for 30 min at RT. Hoechst 33358 was used for nuclei staining. After mounting with Mowiol (Sigma-Aldrich) containing 1,4-diazabicyclo [2.2.2]octane (Sigma-Aldrich), images were taken using a Leica microscope (DMRD; Leica Microsystems, Wetzlar, Germany) and processed using ImageJ32 software.

GLUT1 = assay: Western blot of GLUT1 protein level in BLECs; format: cell-based, human; settings: 48 h, 20 mM βHB or ratio, Western blot normalized to β-actin, at least three independent experiments
LRP1 = assay: Western blot of LRP1 protein level in BLECs; format: cell-based, human; settings: 48 h, 20 mM βHB or ratio, Western blot normalized to β-actin, at least three independent experiments
PICALM = assay: Western blot of PICALM protein level in BLECs; format: cell-based, human; settings: 48 h, 20 mM βHB or ratio, Western blot normalized to β-actin, at least three independent experiments
PC12 cells = PC12 cells exposed in 0–20 mM βHB; cited from earlier work
Text: For a few years now, there has been an increased focus on the role of the transport of Aβ peptides across the blood–brain barrier (BBB). It appears that increasing the clearance or reducing the entry of Aβ peptides in the brain could be a promising therapeutic approach for counteracting the pathogenic processes observed in AD [52]. In recent years, there has been mounting interest in the possible utilization of a ketogenic diet (KD) or ketone body (KB) supplementations in the treatment of AD [53, 54]. On the basis of KBs’ beneficial effects on the CNS, and the lack of publ ...

[3] = tested on: human in vitro BBB model (BLECs); assay: βHB concentration in the compartments of the in vitro BBB model; format: in vitro ADME; settings: 20 mM βHB added apically, 48 h
Procedure: (§1) During this time, the glucose and βHB concentrations were measured in both the apical compartment and the basolateral compartment. The Precision-Xtra meter (Abbott Labs, Abbott Park, IL, USA) with a glucose or β-ketone sticks was used. In these assays, the glucose and βHB concentrations measured by the sticks were representative of the glucose and βHB present in the culture medium. Data were expressed in mmol·L^−1 for βHB and in g·L^−1 for glucose. The βHB concentration within BLECs was measured at 48 h following the treatment. Briefly, after medium removal, BLECs were washed twice with RH buffer and lysed with RIPA lysis buffer (Millipore Corporation, Burlington, MA, USA). The βHB concentration in the BLECs was normalized by the protein amount using Bradford assay (Bio-rad, Munich, Germany). The amount of βHB into the supernatant was assayed using β-ketone sticks, as described above. The βHB concentration was verified in the culture medium without cells at 37 °C and 5% CO2 to ensure the stability of βHB.

[4] = Stability of βHB in culture medium; format: physicochemical; settings: 37 °C, 5% CO2, over 48 h, β-ketone sticks
Procedure: as §1

Molecule: CC(=O)CC(=O)O [AcAc, acetoacetate]
decrease in PeLY compared to the control (BLEC monolayer; 20 mM, 48 h treatment of BLECs, p-value ≤ 0.0001): 14.6%
decrease of apical-to-basolateral [3H]inulin transport ([1]; after 48 h 20 mM AcAc, scintillation counting, p-value = 0.0005): 12.9%
increase of MCT1 protein level compared to the control (MCT1): 35.9%

Molecule: COc1cc2c(cc1OC)CN(CCc1ccc(NC(=O)c3cccc4c(=O)c5cccc(OC)c5[nH]c34)cc1)CC2 [elacridar, Elacridar, reference compound]
effect on the increased basolateral-to-apical Aβ1–40Cy5 peptide transport after ratio KB treatment [2]: abolished
effect on basolateral-to-apical transport of [3H]inulin after ratio KB treatment [1]: not affected

Molecule: OC[C@@H](O)[C@@H](O)[C@H](O)[C@H](O)CO [mannitol]
increase in PeLY values compared to non-treated cells (BLEC monolayer; mannitol treatment of the human in vitro BBB model, p-value ≤ 0.0001): 620.6%
staining of tight junction proteins ZO-1 and claudin-5 (intercellular contacts) (BLECs): interruption in the staining for ZO-1 and claudin-5 protein

βHB concentration in the BLEC [3]: ~ 0.5 mM
βHB concentration in the apical compartment [3]: ~ 8.5 mM
βHB concentration in the basolateral compartment [3]: ~ 6.6 mM
initially added βHB not detectable ([3]; 37 °C, 5% CO2): 21.4%
βHB in BLECs, % of the total amount of βHB ([3]; 37 °C, 5% CO2, RIPA lysate, β-ketone sticks, mean of three independent experiments): 2.4%
βHB in the apical (luminal) compartment, % of the total amount of βHB ([3]; 37 °C, 5% CO2, β-ketone sticks (Precision-Xtra meter), mean of three independent experiments): 42.9%
βHB in the basolateral (abluminal) compartment, % of the total amount of βHB ([3]; 37 °C, 5% CO2, β-ketone sticks, mean of three independent experiments): 33.3%
stability of βHB in the culture medium [4]: stable
Molecule: CC(O)CC(=O)O (stereo not drawn) [βHB, Beta-hydroxybutyric acid]
increase of GLUT1 protein level compared to the control (GLUT1): 51.9%
upregulation of LRP1 protein level compared to the control (LRP1): 109.3%
increase of PICALM protein level compared to the control (PICALM): 39.1%
cell viability (PC12 cells): 95%
increase of MCT1 protein level compared to the control (MCT1): 24.9%

endothelial lucifer yellow permeability (PeLY), control conditions (BLEC monolayer; untreated BLECs, LY 50 µM in RH buffer, apical-to-basolateral, 1 h, fluorescence 432/538 nm, mean ± SEM, three independent experiments in triplicate): 0.92 ± 0.03 × 10^−3 cm∙min^−1
Molecule: Lucifer Yellow CH dilithium salt

B1: RAP: Receptor-associated protein, human, recombinant, E.coli; standard inhibitor for LRP1 (protein, UniProt P30533 35-357, looked up)
Alpha-2-macroglobulin …: YSREKNQPKPSPKRESGEEFRMEKLNQLWEKAQRLHLPPVRLAELHADLKIQERDELAWKKLKLDGLDEDGEKEARLIRNLNVILAKYGLDGKKDARQVTSNSLSGTQEDGLDDPRLEKLWHKAKTSGKFSGEELDKLWREFLHHKEKVHEYNVLLETLSRTEEIHENVISPSDLSDIKGSVLHSRHTELKEKLRSINQGLDRLRRVSHQGYSTEAEFEEPRVIDLWDLAQSANLTDKELEAFREELKHFEAKIEKHNHYQKQLEIAHEKLRHAESVGDGERVSRSREKHALLEGRTKELGYTVKKHLQDLSGRISRARHNEL
effect on the increased basolateral-to-apical Aβ1–40Cy5 peptide transport after ratio KB treatment [2]: abolished
effect on basolateral-to-apical transport of [3H]inulin after ratio KB treatment [1]: not affected
